Values of other authors, collected in US12397060B2, “pHLIP®-mediated intracellular delivery of immuno-stimulatory compounds” (University of Rhode Island Board of Trustees, priority 2019, dated 2025).

System: DCs, macrophages, T cells and endothelial cells sorted from B16 tumors
Settings: stimulated ex vivo, expression highest in macrophages, followed by DCs

Structure (SMILES)	IFN-β expression upon stimulation
Nc1ncnc2c1ncn2[C@@H]1O[C@@H]2COP(=O)([S-])O[C@@H]3[C@H](O)[C@@H](COP([O-])(=S)O[C@H]2[C@H]1O)O[C@H]3n1cnc2c(N)ncnc21.[Na+].[Na+] (some centres unmarked) [ML RR-S2 CDA, Dithio-(Rp, Rp)-2′,3′-CDA sodium salt]	All subsets expressed IFN-β
Cc1ccc2c(=O)c3cccc(CC(=O)O)c3oc2c1C [DMXAA, 5,6-Dimethylxanthenone-4-acetic acid]	All subsets expressed IFN-β
